From paper PMC12000418, “Ubiquitin is directly linked via an ester to protein-conjugated mono-ADP-ribose” (The EMBO Journal, 2025)

What was measured:
DTX2 = target: T1, DTX2 (Homo sapiens, UniProt Q86UW9); assay: In vitro ubiquitylation of NAD+ ([…]) by purified DTX2 and E2~Ub, silver-stained gel; assay type: biochemical
T1 construct: RING-DTC domain, residues 389–622; with UBE2D3~Ub conjugate

PARP10 = target: T2, PARP10 (Homo sapiens, UniProt Q53GL7); assay: Dose-response inhibition of GFP-PARP10 auto-MARylation in HEK […] cells, western blot; assay type: cell-based
T2 construct: GFP-PARP10, doxycycline-inducible in HEK 293 cells
T2 sequence (Q53GL7 1-1025): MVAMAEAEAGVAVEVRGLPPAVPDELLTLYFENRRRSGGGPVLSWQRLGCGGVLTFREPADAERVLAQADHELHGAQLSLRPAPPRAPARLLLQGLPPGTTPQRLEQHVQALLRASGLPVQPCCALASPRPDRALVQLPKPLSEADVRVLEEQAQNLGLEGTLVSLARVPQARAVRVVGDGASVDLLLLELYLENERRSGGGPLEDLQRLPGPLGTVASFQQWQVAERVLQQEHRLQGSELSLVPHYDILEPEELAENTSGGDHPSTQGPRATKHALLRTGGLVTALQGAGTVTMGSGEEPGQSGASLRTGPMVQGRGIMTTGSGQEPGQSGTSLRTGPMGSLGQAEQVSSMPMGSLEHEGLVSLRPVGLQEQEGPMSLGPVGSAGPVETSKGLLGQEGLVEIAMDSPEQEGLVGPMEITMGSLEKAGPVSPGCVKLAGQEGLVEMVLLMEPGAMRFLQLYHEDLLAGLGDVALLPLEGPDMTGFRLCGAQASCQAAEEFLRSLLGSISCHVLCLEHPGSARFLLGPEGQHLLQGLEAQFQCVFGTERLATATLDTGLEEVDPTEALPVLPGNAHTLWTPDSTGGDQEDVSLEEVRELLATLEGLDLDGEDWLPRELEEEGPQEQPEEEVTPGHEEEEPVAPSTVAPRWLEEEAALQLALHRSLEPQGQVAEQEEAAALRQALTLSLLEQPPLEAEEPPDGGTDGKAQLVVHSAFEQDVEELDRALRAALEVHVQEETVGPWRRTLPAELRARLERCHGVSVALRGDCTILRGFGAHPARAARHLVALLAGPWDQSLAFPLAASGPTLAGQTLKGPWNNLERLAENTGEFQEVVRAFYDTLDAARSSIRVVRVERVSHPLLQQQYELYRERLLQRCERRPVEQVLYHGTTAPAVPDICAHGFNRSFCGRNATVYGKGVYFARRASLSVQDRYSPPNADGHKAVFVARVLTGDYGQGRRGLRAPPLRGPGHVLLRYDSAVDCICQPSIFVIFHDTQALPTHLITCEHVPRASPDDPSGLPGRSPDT

T1 sequence (Q86UW9 389-622): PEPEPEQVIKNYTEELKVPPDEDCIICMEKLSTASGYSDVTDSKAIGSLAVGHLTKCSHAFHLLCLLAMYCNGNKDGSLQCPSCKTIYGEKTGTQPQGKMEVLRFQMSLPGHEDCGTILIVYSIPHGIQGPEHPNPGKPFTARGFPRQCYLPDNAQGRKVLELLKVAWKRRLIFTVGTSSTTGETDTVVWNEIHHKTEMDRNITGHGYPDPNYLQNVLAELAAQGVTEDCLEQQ
T1 sequence (P61077 whole entry partner, the tested form may be a part): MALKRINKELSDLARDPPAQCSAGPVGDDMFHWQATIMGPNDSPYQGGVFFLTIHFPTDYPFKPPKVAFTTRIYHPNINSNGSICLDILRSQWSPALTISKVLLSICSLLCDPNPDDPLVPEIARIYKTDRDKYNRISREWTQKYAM

IC50 (PARP10) [nM] | Compound | In vitro ubiquitylation of NAD+ (0.2 mM) by purified DTX2 and E2~Ub, silver-stai (DTX2)
– | NC(=O)c1ccc[n+]([C@@H]2O[C@H](COP(=O)([O-])OP(=O)(O)OC[C@H]3O[C@@H](n4cnc5c(N)ncnc54)[C@H](O)[C@@H]3O)[C@@H](O)[C@H]2O)c1 [NAD^+] | DTX2 could readily conjugate Ub to NAD^+ and ADPr to form Ub ester-linked NAD^+ (NAD^+-Ube)
51.4 | RBN010860 | –
